# In patent US20100143449A1, “ANALGESIC COMPOSITION OF TOPICALLY APPLIED NONSTEROIDAL ANTIINFLAMMATORY DRUGS AND OPIOIDS” (priority 2007, published 2010):
# Entries after “also recorded” stand apart in the source; their conditions may differ.
# Tested on: Male Crl:CD-1 (ICR) BR mice
# Assay: Radiant heat tail-flick assay after topical drug application to the tail
# Type: in vivo
# Details: for analgesia in % of mice: alone or together, 2 min; for time of maximal analgesic effect after topical application / topical analgesic effect (in words) / duration of analgesia: single drug; for duration of analgesia: FIG. 6: S-ibuprofen 4.8 mmol, diclofenac 3.5 mmol, 2 min exposure; for time of maximal analgesic effect after topical application / topical analgesic effect (in words) / ED 50 value, propylene glycol alone / ED 50 value, propylene glycol and lauric acid: topical; for ED 50 value, propylene glycol alone / ED 50 value, propylene glycol and lauric acid: tail immersed 2 min, tested immediately afterward; for ED 50 value, propylene glycol alone: vehicle propylene glycol alone; for ED 50 value, propylene glycol and lauric acid: vehicle propylene glycol and lauric acid (10:1)
# Protocol: All in vivo studies were carried out in accordance with the Declaration of Helsinki and with the Guide for Care and Use of Laboratory Animals, as adopted and promulgated by the Estonian Põllumajandusministeerium. Male Crl:CD-1® (ICR) BR mice (20-25 g) were purchased from Charles River Laboratories (Germany) and were housed in a 12:12-h light-dark cycle temperature-controlled room with food and water freely available. Drugs were obtained from Sigma (St. Louis, Mo., USA). […] Briefly, the distal portion of the tail (2-3 cm) was immersed in a propylene glycol/dH2O (10:1 ratio) alone or propylene glycol and lauric acid combination (10:1) solution containing the indicated drugs for the stated time, usually 2 min.). Analgesia was defined quantitatively as tail-flick latency for an individual animal that was twice its baseline latency or greater using tail flick apparatus (Ugo Basile, Italy). […] ED50 values were determined with GraphPad Software.
# [1] = FIG. 7A: morphine 0.15 mmol, diclofenac 0.9 mmol
# [2] = FIG. 9A: methadone 0.7 mmol, diclofenac 0.9 mmol
# [3] = FIG. 11B: hydrocodone 0.6 mmol, S-ibuprofen 1.2 mmol
# [4] = FIG. 10A: methadone 0.7 mmol, S-ibuprofen 1.2 mmol
smiles,measurement,setting,value
"O=C(O)Cc1ccccc1Nc1c(Cl)cccc1Cl [Diclofenac, diclofenac]",analgesia in % of mice,[1],30%
same,analgesia in % of mice,[2],30%
same,time of maximal analgesic effect after topical application,,2 min
same,topical analgesic effect (in words),,dose dependent analgesia
same,duration of analgesia,,90 min
same,"ED 50 value, propylene glycol alone",,3.3 mmol
same,"ED 50 value, propylene glycol and lauric acid",,1.1 mmol
"COc1ccc2c3c1O[C@H]1C(=O)CC[C@H]4[C@@H](C2)N(C)CC[C@]314 [Hydrocodone, hydrocodone]",analgesia in % of mice,[3],20%
same,topical analgesic effect (in words),,most potent analgesic activity; also recorded: dose dependent response
same,"ED 50 value, propylene glycol alone",,1.6 mmol
same,"ED 50 value, propylene glycol and lauric acid",,1.2 mmol
"CCN(CC)CC(=O)Nc1c(C)cccc1C [Lidocaine, lidocaine]",topical analgesic effect (in words),,no differences in ED50; also recorded: significant and long acting analgesic effects
same,"ED 50 value, propylene glycol alone",,2.2 mmol
"CCC(=O)C(CC(C)N(C)C)(c1ccccc1)c1ccccc1 (stereo not shown) [Methadone, methadone]",dose response shift to left of ED50 on addition of lauric acid to propylene glycol,,6.7 fold
same,analgesia in % of mice,[2],30%
same,analgesia in % of mice,[4],25%
same,topical analgesic effect (in words),,dose dependent (FIG. 4A) and naloxone sensitive
same,"ED 50 value, propylene glycol alone",,6.7 mmol
same,"ED 50 value, propylene glycol and lauric acid",,1.0 mmol
"CN1CC[C@]23c4c5ccc(O)c4O[C@H]2[C@@H](O)C=C[C@H]3[C@H]1C5 [Morphine, morphine]",analgesia in % of mice,[1],20%
same,"ED 50 value, propylene glycol alone",,7.6 mmol
CC(C)Cc1ccc([C@H](C)C(=O)O)cc1 [S-ibuprofen],analgesia in % of mice,[4],30%
same,analgesia in % of mice,[3],30%
same,time of maximal analgesic effect after topical application,,2 min
same,topical analgesic effect (in words),,dose dependent analgesia
same,duration of analgesia,,90 min
same,"ED 50 value, propylene glycol alone",,9.3 mmol
same,"ED 50 value, propylene glycol and lauric acid",,2.1 mmol
